Measurements: ChEMBL document CHEMBL5154814, “Discovery of MK-1454: A Potent Cyclic Dinucleotide Stimulator of Interferon Genes Agonist for the Treatment of Cancer” (J Med Chem, 2022)
Values belong to the compound of their own block, whether it stands above or below them. Active and inactive are the calls of the source. The rule behind the calls is not given here.

How the values were obtained:
[1] = molecular target: Stimulator of interferon genes protein (Mus musculus, UniProt Q3TBT3); settings: bmdc
Mus musculus [2] = experiment: Antitumor immunity in mouse MC38 cells implanted in C57BL/6J mouse assessed as increase in TNF-alpha level in injected tumor at 5 to 20 ug,IT administrated in right flank on day 0 measured after 4 hrs by mesoscale assay; assay type: functional, organism-based; settings: MC-38, dose 5-20 µg
MC-38 [3] = experiment: Antitumor activity against mouse MC38 cells implanted in C57BL/6J mouse assessed as reduction in tumor growth at 4 ug,IT administered for day 0,3,7 followed by anti-mouse PD-1 antibody Mdx400 incubated for 28 days measured twice a week; assay type: functional, cell-based; settings: dose 4.0 µg, time 28.0 day
Mus musculus [4] = experiment: Antitumor immunity in mouse MC38 cells implanted in C57BL/6J mouse assessed as increase in IL-6 level in injected tumor at 5 to 20 ug,IT administrated in right flank on day 0 measured after 4 hrs by mesoscale assay; assay type: functional, organism-based; settings: MC-38, dose 5-20 µg
Mus musculus [5] = experiment: Antitumor immunity in mouse MC38 cells implanted in C57BL/6J mouse assessed as increase in IFN-beta level in injected tumor at 5 to 20 ug,IT administrated in right flank on day 0 measured after 4 hrs by ELISA; assay type: functional, organism-based; settings: MC-38, dose 5-20 µg
MC-38 [6] = experiment: Antitumor activity against mouse MC38 cells implanted in C57BL/6J mouse assessed as reduction in tumor growth on right flank at 20 ug,IT administrated in right flank on day 0, 3 and 7 measured after 15 days; assay type: functional, cell-based; settings: dose 20.0 µg, time 15.0 day
B16-F10 = experiment: Antitumor activity against mouse B16-F10 cells implanted in C57BL/6J mouse assessed as reduction in tumor growth at 4 ug,IT administered for day 0,3,7 followed by anti-mouse PD-1 antibody Mdx400 incubated for 28 days measured twice a week; assay type: functional; settings: dose 4.0 µg, time 28.0 day
MC-38 [7] = experiment: Antitumor activity against mouse MC38 cells implanted in C57BL/6J mouse assessed as reduction in tumor growth on right flank at 5 ug,IT administrated in right flank on day 0, 3 and 7 measured after 15 days; assay type: functional, cell-based; settings: dose 5.0 µg, time 15.0 day
Mus musculus [8] = experiment: Antitumor immunity in mouse MC38 cells implanted in C57BL/6J mouse assessed as increase in TNF-alpha level in injected tumor at 100 to 500 ug,IT administrated in right flank on day 0 measured after 4 hrs by mesoscale assay; assay type: functional, organism-based; settings: MC-38, dose 100-500 µg
Mus musculus [9] = experiment: Antitumor immunity in mouse MC38 cells implanted in C57BL/6J mouse assessed as increase in IFN-beta level in injected tumor at 100 to 500 ug,IT administrated in right flank on day 0 measured after 4 hrs by ELISA; assay type: functional, organism-based; settings: MC-38, dose 100-500 µg
Mus musculus [10] = experiment: Antitumor immunity in mouse MC38 cells implanted in C57BL/6J mouse assessed as increase in IL-6 level in injected tumor at 100 to 500 ug,IT administrated in right flank on day 0 measured after 4 hrs by mesoscale assay; assay type: functional, organism-based; settings: MC-38, dose 100-500 µg
[11] = Drug uptake in tumor of C57BL/6J mouse implanted with mouse MC38 cells assessed as drug concentration at 20 ug,IT administrated on left flank on day 0 measured upto 1 hr by LC-MS analysis; assay type: ADME, tissue-based, Neoplasm, MC-38; settings: in vivo, other, dose 20 µg
[12] = Drug uptake in plasma of C57BL/6J mouse implanted with mouse MC38 cells assessed as drug concentration at 20 ug,IT administrated on right flank on day 0 measured upto 1 hr by LC-MS analysis; assay type: ADME, cell-free, MC-38; settings: in vivo, other, dose 20 µg
[13] = Drug uptake in plasma of C57BL/6J mouse implanted with mouse MC38 cells assessed as drug concentration at 20 ug,IT administrated on left flank on day 0 measured upto 1 hr by LC-MS analysis; assay type: ADME, cell-free, MC-38; settings: in vivo, other, dose 20 µg
[14] = Drug uptake in tumor of C57BL/6J mouse implanted with mouse MC38 cells assessed as drug concentration at 20 ug,IT administrated on right flank on day 0 measured upto 1 hr by LC-MS analysis; assay type: ADME, tissue-based, Neoplasm, MC-38; settings: in vivo, other, dose 20 µg

Chain of Stimulator of interferon genes protein (Q3TBT3 whole entry, looked up, change not shown): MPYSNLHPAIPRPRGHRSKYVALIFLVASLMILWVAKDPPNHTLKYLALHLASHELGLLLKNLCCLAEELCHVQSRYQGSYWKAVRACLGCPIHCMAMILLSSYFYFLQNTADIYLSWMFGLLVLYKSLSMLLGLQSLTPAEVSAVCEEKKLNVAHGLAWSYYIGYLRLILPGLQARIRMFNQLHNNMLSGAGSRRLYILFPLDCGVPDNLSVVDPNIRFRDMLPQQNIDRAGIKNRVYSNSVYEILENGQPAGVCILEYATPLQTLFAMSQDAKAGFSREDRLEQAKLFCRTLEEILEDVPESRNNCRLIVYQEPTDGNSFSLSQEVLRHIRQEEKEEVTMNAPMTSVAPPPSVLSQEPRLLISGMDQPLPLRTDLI

EC50 [1]: 3.21 µM
SMILES: Nc1nc2c(ncn2[C@@H]2O[C@@H]3CO[P@@](=O)(S)O[C@H]4C[C@H](n5cnc6c(N)ncnc65)O[C@@H]4CO[P@@](=O)(S)O[C@@H]2[C@@H]3F)c(=O)[nH]1

EC50 [1]: 1.55 µM
SMILES: Nc1nc2c(ncn2[C@@H]2O[C@@H]3CO[P@@](=O)(S)O[C@H]4[C@@H](F)[C@H](n5cnc6c(N)ncnc65)O[C@@H]4CO[P@@](=O)(S)O[C@@H]2[C@@H]3O)c(=O)[nH]1

Drug uptake [11]: Active | Drug uptake [12]: Active | Drug uptake [13]: Active | Drug uptake [14]: Active
SMILES: N.N.Nc1nc2c(ncn2[C@@H]2O[C@@H]3CO[P@@](=O)(S)O[C@H]4[C@H](F)[C@H](n5cnc6c(N)ncnc65)O[C@@H]4CO[P@@](=O)(S)O[C@@H]2[C@@H]3F)c(=O)[nH]1

More lines, now with the values behind:

SMILES: Nc1nc2c(ncn2[C@@H]2O[C@@H]3CO[P@@](=O)(S)O[C@H]4[C@@H](O)[C@H](n5cnc6c(N)ncnc65)O[C@@H]4CO[P@@](=O)(S)O[C@@H]2C3)c(=O)[nH]1
EC50 [1]: 6.23 µM

SMILES: Nc1nc2c(ncn2[C@@H]2O[C@@H]3COP(=O)(O)O[C@H]4[C@H]5OC[C@]4(COP(=O)(O)O[C@@H]2C3)O[C@H]5n2cnc3c(N)ncnc32)c(=O)[nH]1
EC50 [1]: > 100 µM

SMILES: Nc1nc2c(ncn2[C@@H]2O[C@@H]3CO[P@@](=O)(S)O[C@H]4[C@H]5OC[C@]4(CO[P@@](=O)(S)O[C@@H]2[C@@H]3O)O[C@H]5n2cnc3c(N)ncnc32)c(=O)[nH]1
EC50 [1]: 5.38 µM

SMILES: Nc1nc(=O)c2ncn([C@@H]3O[C@@H]4CO[P@@](=O)(S)O[C@H]5[C@H](F)[C@H](n6cnc7c(N)ncnc76)O[C@@H]5CO[P@@](=O)(S)O[C@@H]3[C@@H]4F)c2[nH]1
Activity (Mus musculus [2]): Active | Activity (MC-38 [3]): Active | Activity (Mus musculus [4]): Active | Activity (Mus musculus [5]): Active | Activity (MC-38 [6]): Active | Activity (B16-F10): Active | Activity (MC-38 [7]): Active

SMILES: Nc1nc2c(ncn2[C@@H]2O[C@@H]3COP(=O)(O)O[C@H]4[C@@H](O)[C@H](n5cnc6c(N)ncnc65)O[C@@H]4COP(=O)(O)O[C@@H]2[C@@H]3O)c(=O)[nH]1
Activity (Mus musculus [8]): Active | Activity (Mus musculus [9]): Active | Activity (Mus musculus [10]): Active
